Measurements as given in patent US20100216120A1, “Rapid infectious virus assay” (priority 2009, published 2010).

How the values were obtained:
[1] = system: infectious HIV from monocytes; assay: Rapid Infectious Viral Assay (RIVA): virus release from monocytes on fibronectin-coated wells, TZM-bl reporter cell luciferase readout; assay type: cell-based, Human Immunodeficiency Virus (HIV); conditions: ATP 1 mM
Procedure: The plates were then coated with fibronectin and BSA. 150 k CD8-depleted PBMCs were added on to a 96-well for 3 hrs followed by washings using RPMI 10%. ATP (1 mM) was then added in a volume of 100 ul for a 3 hrs at 37° C. TZMs (15K) were then added on to the wells the next day. 5 days later after launch, the supernatants were removed and steady-glo reagent was added on to the TZMs and read on a Spectramax.
ATP (1 mM) was then added in a volume of 100 ul for a 3 hrs at 37° C. TZMs (10K) were then added on to the wells. 4 days later after launch, the supernatants were removed and steady-glo reagent was added on to the TZMs and read on a Spectramax.
ATP (1 mM) was then added in a volume of 100 ul for a 3 hrs at 37° C. TZMs (10K) were then added on to the wells. 3 days later after launch, the supernatants were removed and steady-glo reagent was added on to the TZMs and read on a Spectramax.
ATP (1 mM) was then added in a volume of 100 ul for a 3 hrs at 37° C. TZMs (20K) were then added on to the wells. 3 days later after launch, the supernatants were removed and steady-glo reagent was added on to the TZMs and read on a Spectramax.
In a preferred embodiment, CD8-depleted PBMC were isolated from HIV-negative donors and HIV patients with VL<50 copies/ml using Dynal beads. Peripheral monocytes (CD14) were used in a rapid infectious assay using TZM-bl coculture technique. The inventors compare this shorter infection assay to classical method of PBMC activation with anti CD3/CD28 antibodies. Major CCR5 blockers were addressed. Presence of infectious virus was also investigated using FACS and rtPCR.
FIG. 2 illustrates a test of the ability of ATP (1 mM) to release infectious virus from monocytes in presence of fibronectin coating on to the tissue culture wells. The HIV infectivity was measured by measuring the RLU on a Spectramax M5 plate readert.
1. A 96 well plate (a 48 well can be used) is coated with 100 ul RPMI containing fibronectin (50 ug/ml) in BSA (0.5%) for 30 minutes at room temperature.
2. CD8-depleted PBMC's which have been frozen at 2 million cells per ml and stored at −80 C in 22% FBS and 10% DMSO are thawed quickly and about 100 ul containing 200 k cells are added to the wells immediately
3. Let cells of interest attach for 2 hours (longer even overnight up to 20 hrs can be used)
4. Remove all the media which contains non-adherent cells and wash with 200 ul of RPMI with 10% FBS, pipetting gently, removing this wash media. The adherent monocytes remain.
5. […]
7. Finally quantitate how much viral infection has occurred by reading luciferase production using Steady Glow reagent (Promega) and a luminometer/spectrophotometer. […]

[2] = system: infectious HIV from monocytes; assay: ATP-triggered release of infectious virus from CD8-depleted PBMC monocytes, TZM reporter cell luciferase readout, no fibronectin coating; assay type: cell-based, Human Immunodeficiency Virus (HIV); conditions: ATP 1-5 mM, absence of fibronectin coating, 200 k CD8-depleted PBMCs, 3 days; HIV-positive vs negative individuals
Procedure: ATP (1 mM) was then added in a volume of 100 ul for a 3 hrs at 37° C. TZMs (10K) were then added on to the wells in 100 ul in RPMI 10%. After 3 days later, the supernatants were removed and steady-glo reagent was added on to the TZMs and read on a Spectramax.
The inventors tested the ability of ATP (1-5 mM) to release infectious virus from monocytes in absence of fibronectin coating on to the tissue culture wells. […] Further differentiation and/or activation is useful to enhance virus release.

## Nc1ncnc2c1ncn2[C@@H]1O[C@H](COP(=O)(O)OP(=O)(O)OP(=O)(O)O)[C@@H](O)[C@H]1O [ATP]
[1]; fibronectin and BSA coating, 100 k CD8-depleted PBMCs O/N, 3-day assay (Format #3)
  release of infectious virus from monocytes (RLU on TZMs): triggers the release of the virus
[1]; fibronectin and BSA coating, 100 k CD8-depleted PBMCs O/N, 4-day assay (Format #2)
  release of infectious virus from monocytes (RLU on TZMs): triggers the release of the virus
[1]; fibronectin and BSA coating, 225 k cells, 48-well, 4-day assay (Format #4)
  release of infectious virus from monocytes (RLU on TZMs): triggers the release of the virus
[1]; fibronectin coating, 150 k CD8-depleted PBMCs, 5 day assay (Format #1)
  release of infectious virus from monocytes (RLU on TZMs): capable of triggering release of viral particles from monocytes
[2]
  release of infectious virus from monocytes (RLU on TZMs): incapable of triggering release of viral particles from monocytes
